{"source": "patent US20240082238A1", "about": "“COMPOSITIONS AND METHODS FOR TREATING CANCER” (UNIVERSITY OF IOWA RESEARCH FOUNDATION, priority 2021, published 2024)", "key": {"Hec50co cells": {"tested_on": "Hec50co cells", "test": "Cell cycle assay (PI flow cytometry)", "assay_type": "cell-based, human", "conditions": "24 h", "procedure": "Cell Cycle assay. Hec50co cells were seeded at […] cells per well in 6-well plates for 48 h in complete medium. The medium was then removed and replaced with PTX (1, 5, and 10 nM), CIP2b (10 μM), combinations of PTX with CIP2b, or with a fresh complete medium. Cells were incubated with the treatments for 24 h, then the medium was removed, and the cells were washed twice with Dulbecco's Phosphate-Buffered Saline (DPBS 1×, ThermoFisher Scientific), trypsinized (0.4 mL/well), and collected by centrifugation (230 xg, 5 min). Cells were then fixed using 70% ethanol stored at 4° C. for 30 min, then incubated with 100 μg/mL RNase A in 2% v/v NP-40 Surfact-Amps® solution (0.5 mL/sample) for 30 min at 37° C. Then, PI (50 μg/mL, 0.5 mL/sample) was added prior to analysis by flow cytometry (FACScan, BD Biosciences) using CellQuest software (Ver. 3.3). The data were further analyzed by ModFit LT (Ver. 5.0) to calculate the percent of cells in each phase of the cell cycle (i.e., G0/G1, S, G2/M).\nIn vitro activity of CIP2b NPs. […] An equivalent quantity of blank NPs was also tested to account for the effect of the PLGA NPs alone without CIP2b. […] An equivalent quantity of blank NPs was also added, either alone or with PTX-OG. Samples were then analyzed using a flow cytometer, as described above."}, "human Topo I": {"molecular_target": "T1, human Topo I (Homo sapiens, UniProt P11387)", "T1 construct": "purchased TopoGEN Inc. TG1015-1A", "T1 sequence (P11387 1-765)": "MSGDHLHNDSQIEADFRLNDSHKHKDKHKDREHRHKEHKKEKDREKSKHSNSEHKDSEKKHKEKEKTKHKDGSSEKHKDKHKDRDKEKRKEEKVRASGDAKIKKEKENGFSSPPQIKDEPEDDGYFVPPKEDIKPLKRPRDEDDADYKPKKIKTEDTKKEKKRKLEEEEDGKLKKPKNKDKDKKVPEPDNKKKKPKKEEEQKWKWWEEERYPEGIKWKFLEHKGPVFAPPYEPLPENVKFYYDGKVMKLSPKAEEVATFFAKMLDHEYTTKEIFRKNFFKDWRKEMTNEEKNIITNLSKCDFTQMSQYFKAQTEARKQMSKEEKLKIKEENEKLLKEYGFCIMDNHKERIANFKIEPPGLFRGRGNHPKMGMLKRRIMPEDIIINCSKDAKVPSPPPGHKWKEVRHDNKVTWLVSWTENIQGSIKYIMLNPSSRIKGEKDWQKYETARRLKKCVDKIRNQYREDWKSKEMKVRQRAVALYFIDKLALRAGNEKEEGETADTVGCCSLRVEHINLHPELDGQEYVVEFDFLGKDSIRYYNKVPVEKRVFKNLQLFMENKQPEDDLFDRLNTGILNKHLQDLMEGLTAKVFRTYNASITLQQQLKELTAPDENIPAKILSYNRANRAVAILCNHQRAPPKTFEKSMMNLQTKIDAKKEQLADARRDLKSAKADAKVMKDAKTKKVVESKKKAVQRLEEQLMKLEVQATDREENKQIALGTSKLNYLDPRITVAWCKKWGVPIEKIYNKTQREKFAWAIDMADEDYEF", "test": "Topoisomerase I inhibition assay (plasmid-based)", "assay_type": "biochemical", "conditions": "drug final concentration 100 μM", "procedure": "Topoisomerase I inhibition assay. A plasmid-based Topo I assay (Cat. No. TG1015-1A, TopoGEN Inc., Buena Vista, CO) was performed according to the manufacturer's instructions. Briefly, 1 μL of the test compounds (PTX, CIP, CIP2b, or CAM) at a concentration of 2 mM, was mixed with 2 μL of the reaction buffer (10× tris-glycine-SDS), and deionized water was added to make 18 μL solution. This was followed by adding 1 μL of supercoiled DNA (SC DNA) and 1 μL of human Topo I (10 U/μL) (drug final concentration was 100 μM). Also, SC DNA±Topo I was used as a control (i.e., not containing drugs). In addition, relaxed DNA was added as another control in this assay. Samples were incubated on a heating block (Isotemp 125 D Digital Heat Block, ThermoFisher Scientific) set at 37° C. for 30 minutes. Then, the reaction was stopped by adding a 5× stop buffer. Samples were then loaded directly into the wells of a 1% agarose gel (Research Products International, Mount Prospect, IL). The gel was run at 150 V until the dye front had traveled approximately 5 cm (run time was approximately 2 hours). The gel was then stained with 1 μg/mL ethidium bromide in deionized water for 15 minutes, and this was followed by de-staining (washing) with deionized water for 30 min before imaging. The image was then taken using an Invitrogen iBright CL 1500 Imaging System (ThermoFisher Scientific). The intensity of the final bands in the gel was quantified using ImageJ, and the results are expressed as the percentage of Topo I inhibition."}}, "note": "Several values for one entry are separate records, joined by “and”; a condition that tells them apart may be missing. Identical values can stand only once.", "data": [{"smiles": "CC(=O)O[C@H]1C(=O)[C@@]2(C)[C@H]([C@H](OC(=O)c3ccccc3)[C@]3(O)C[C@H](OC(=O)[C@H](O)[C@@H](NC(=O)c4ccccc4)c4ccccc4)C(C)=C1C3(C)C)[C@]1(OC(C)=O)CO[C@@H]1C[C@@H]2O", "note": "[PTX, paclitaxel]", "values": [{"measurement": "cell population at the G2/M phase", "setting": "Hec50co cells; 5 nM PTX", "value": "approximately 46%"}, {"measurement": "cell population at the G2/M phase", "setting": "Hec50co cells; 10 nM PTX", "value": "~70% and 69.5%"}, {"measurement": "Topo I inhibitory activity (gel)", "setting": "human Topo I", "value": "neither PTX nor CIP did inhibit Topo I"}]}]}
